Test results as given in patent publication US8734673B2, “Boron selective ionic liquids and polymeric ionic liquids, methods of making and methods of use thereof” (The University of Toledo, priority 2008, dated 2014).
Each block holds one compound with its values, some of them ahead of it.

How the values were obtained:
[1] = Density by weighing 2.0 mL of ionic liquid; type: physicochemical
Procedure: (§1) The densities of the ionic liquids […] were determined at 23° C. by placing 2.0 mL of the ionic liquid in a 2.0 mL volumetric tube and weighing by difference. The melting points of the ionic liquids were determined using a Perkin Elmer Pyris 1 Differential Scanning Calorimeter (Boston, Mass.). Typical methods involved using a 10° C./min temperature ramp to determine and identify the first and second order thermal transitions. […] For solid compounds, the melting points were verified using a capillary melting point apparatus. Refractive index measurements were conducted at 23° C. using a Bausch & Lomb Abbe-3L refractometer.

[2] = Refractive index, Abbe refractometer; type: physicochemical
Procedure: as §1

[3] = Surface tension, DuNuoy tensiometer; type: physicochemical; details: room temperature (23° C.)
Procedure: Surface tension values were measured at room temperature (23° C.) using a Model 20 DuNuoy Tensiometer (Fisher Scientific, Fair Lawn, N.J.) equipped with a platinum-iridium ring with a mean circumference of 5.940 cm and a ring/wire radius of 53.21.

[4] = Solvation interaction parameters by inverse gas-liquid chromatography (Abraham model); type: physicochemical
Procedure: The preparation of the capillary columns for inverse gas-liquid chromatographic analysis was performed using a previously described procedure. All capillary columns had efficiencies between 2100 to 2500 plates/meter. Characterization of the capillary columns and probe molecule descriptions are listed in supplemental information. Multiple linear regression analysis (MLRA) and statistical calculations were performed using the program Analyse-it (Microsoft, USA).
Solvation Characteristics. We have previously reported that the Abraham solvation model, a linear free energy approach that utilizes inverse gas-liquid chromatography to describe the solvation properties of a liquid, can be used to characterize room temperature ionic liquids. Described by equation 1, the model provides the so-called “interaction parameters” (r, s, a, b, l) by using multiple linear regression analysis to fit the retention factor (k, determined chromatographically) to the solute descriptors (R2, π2^Hα2H, β2^H, log L^16) for a wide variety of probe solute molecules. […]
Previously we characterized a large number of room temperature ionic liquids in terms of multiple solvation interactions using the solvation parameter model, shown in equation log k=c+rR2+sπ2^H+aα2^H+bβ2^H+l log L^16 [3] This approach utilizes inverse gas-liquid chromatography and allows the use of a large number of probe molecules to deconvolute solute retention in terms of the type and magnitude of individual solvation interactions. The solute descriptors (R2, π2^H, α2^H, .β2^H, log L^16) from Equation 3 are obtained from the literature for many probe molecules containing a variety of functional groups. The retention factor is determined chromatographically. The solute descriptors and retention factors are subjected to multiple linear regression analysis to obtain the interaction parameter coefficients (r, s, a, b, l), which ultimately characterize the stationary phase: r is the ability of the diionic liquid containing-stationary phase to interact with .π0 and n electrons of the solute, s is a measure of the dipolarity/polarizability of the diionic liquid containing-stationary phase, a defines the diionic liquid containing-stationary phase hydrogen bond basicity, b is a measure of the hydrogen bond acidity, and l refers to the ability of the diionic liquid containing-stationary phase to separate adjacent members of a homologous series.
Test solutes used to determine interaction parameters and solvation thermodynamics were dissolved in dichloromethane. […] Split injection and flame ionization detection were utilized with injection and detection temperatures of 250° C. Helium was used as the carrier gas with a column inlet pressure of 3.1 psi and flow rate of 1.0 mL/min. Methane was used to determine the dead volume of the column. Multiple linear regression analysis and statistical calculations were performed using the program Analyze-it (Microsoft).

[5] = Thermal stability of thin film in fused silica capillary, flame ionization detection; type: physicochemical
Procedure: Thermal stabilities were measured by immobilizing an approximate 0.15-0.20 microns film of the ionic liquid on the inner wall of a fused silica capillary. The capillary was then heated slowly in an oven and a very sensitive flame ionization detector (or mass spectrometer) used to detect any volatilization or decomposition of the ionic liquid. There are several advantages of using this set-up to measure the thermal stabilities of ionic liquids. The thermal stability is measured in the absence of oxygen by purging the capillary with a continuous flow of an inert gas such as helium, hydrogen, or nitrogen. […] Finally, this approach can use mass spectrometry detection to determine the likely volatilization/decomposition products.

[6] = Miscibility/solubility in heptane and water
Text: The miscibility/solubility of all ionic liquids in both heptane and water are indicated as well.
The solubility behavior of all thirty-nine geminal dicationic ionic liquids in water and heptane also was explored.

[7] = Solubility assay of N-methyl-D-glucamine in solvents; type: physicochemical
Text: The mechanism for the transformation of N-methyl-D-glucamine into a quaternary ammonium compound is a double nucleophilic substitution with an alkyl halide (FIG. 57). However, the first problem the inventors herein encountered with this approach was the lack of an appropriate solvent.

Density ([1]; 23° C., Tables 1 and 2): 1.31 g/mL | Refractive Index ([2]; 23° C., Tables 1 and 2): 1.456 | Surface Tension [3]: 58.1 dynes/cm
Compound: 1,9-di(2,3-dimethylimidazolium)nonane di-tetrafluoroborate [C9(m2im)2-BF4]

Compound: C[N+]1(CCCCCCCCC[N+]2(C)CCCC2)CCCC1.O=S(=O)([N-]S(=O)(=O)C(F)(F)F)C(F)(F)F.O=S(=O)([N-]S(=O)(=O)C(F)(F)F)C(F)(F)F [C9(mpy)2-NTf2, 1,9-di(methylpyrrolidinium)nonane di-bis[(trifluoromethyl)sulfonyl]imidate]
Interaction parameter a (hydrogen bond basicity) ([4]; 40° C.): 1.98 | Interaction parameter b (hydrogen bond acidity) ([4]; 40° C.): 0.32 | Interaction parameter c ([4]; 40° C.): −2.83 | Interaction parameter l (dispersion forces) ([4]; 40° C.): 0.62 | Interaction parameter r (interaction via nonbonding and π-electrons) ([4]; 40° C.): 0.27 | Interaction parameter s (dipolarity/polarizability) ([4]; 40° C.): 1.71 | Interaction parameter a (hydrogen bond basicity) ([4]; 70° C.): 1.65 | Interaction parameter b (hydrogen bond acidity) ([4]; 70° C.): 0.35 | Interaction parameter c ([4]; 70° C.): −2.85 | Interaction parameter l (dispersion forces) ([4]; 70° C.): 0.48 | Interaction parameter r (interaction via nonbonding and π-electrons) ([4]; 70° C.): 0.34 | Interaction parameter s (dipolarity/polarizability) ([4]; 70° C.): 1.52 | Interaction parameter a (hydrogen bond basicity) ([4]; 100° C.): 1.48 | Interaction parameter b (hydrogen bond acidity) ([4]; 100° C.): 0.15 | Interaction parameter c ([4]; 100° C.): −2.99 | Interaction parameter l (dispersion forces) ([4]; 100° C.): 0.42 | Interaction parameter r (interaction via nonbonding and π-electrons) ([4]; 100° C.): 0.23 | Interaction parameter s (dipolarity/polarizability) ([4]; 100° C.): 1.49 | stable liquid range [5]: about −4 °C to >400 °C

Miscibility with Water [6]: Miscible | Density ([1]; 23° C., Tables 1 and 2): 1.27 g/mL | Surface Tension [3]: 57.9 dynes/cm
Compound: Cn1cc[n+](CCCCCCCCCCCC[n+]2ccn(C)c2)c1.[Br-].[Br-] [C12(mim)2-Br, 1,12-di(3-methylimidazolium)dodecane di-bromide]

Compound: C=Cn1cc[n+](CCCCCCCCCCCC)c1.O=S(=O)([N-]S(=O)(=O)C(F)(F)F)C(F)(F)F [Monomer 3, 1-vinyl-3-dodecylimidazolium bis[(trifluoromethane)sulfonyl]imidate]
Density ([1]; monomers/crosslinkers, Table A): 1.23 g/mL | Refractive Index ([2]; monomers/crosslinkers, Table A): 1.448

Compound: CNC[C@H](O)[C@@H](O)[C@H](O)[C@H](O)CO [N-methyl-D-glucamine]
solubility in acetone, dimethyl formamide, tetrahydrofuran, ethyl acetate, acetonitrile and dichloromethane [7]: insoluble | solubility in water, dimethylsulfoxide (DMSO) [7]: only soluble
